Source: patent US9409895B2, “Autotaxin inhibitors” (Novartis AG, priority 2012, dated 2016)
Like-named read-outs stand apart in the source and are kept apart here.

Molecular target: Recombinant human ATX (Homo sapiens (Human), UniProt Q13822)
Assay: ATX inhibition assay (released choline, choline oxidase/HRP/Amplex Red fluorescence)
Type: biochemical
Protocol: LPC (oleoyl (18:1)) was purchased from Avant: Polar Lipids (Alabaster, Ala.) and solubilized in methanol to 20 mM. Amplex Red was obtained from Invitrogen Life Technologies (Paisley, UK) and dissolved in DMSO to 10 mM. Choline oxidase and horseradish peroxidase (HRP) were obtained from Sigma Aldrich (Dorset, UK) and dissolved in HBSS to 20 U/ml and 200 U/ml respectively. AH reagents were stored at −20° C. in single use aliquots. All experimental measurements were performed in assay buffer made up immediately prior to use (HBSS, 0.01% BSA essentially fatty acid free).
Recombinant human ATX was prepared at Novartis (Basel, CH) in a human embryonic kidney (HEK) cell preparation, and stored in single use aliquots of […] (26 μM) stocks stored at −80° C.
All experimental measurements were performed in black 384 well polystyrene (low volume, round bottom, Corning (3676)) plates. PerkinElmer EnVision (Fluorescence Intensity/Absorbance Monochromator) or Tecan Infinite 200 PRO series plate reader was used to detect change in fluorescent intensity.
ATX activity was determined by measurement of released choline in reactions containing ATX (10 nM), choline oxidase (0.1 U/ml), HRP (100 U/ml), amplex red (50 μM) and LPC 18:1 (10 μM). Compounds of the invention were prepared as 10 point serial dilutions from 1 μM in duplicate and pre-incubated with ATX at 37° C. for 20 minutes prior to the addition of remaining reagents. The liberated choline was measured from changes in fluorescence intensity (λex 530 nm, λem 590 nm) of the product resurofin at 37° C. every 2 minutes over a 40-minute period. ATX activity was measured as a slope of the linear portion of the progress curve, typically between 14 to 24 minutes.
Slope data was exported to Graphpad prism (Graphpad software, San Diego, Calif.) where data was fitted to equation 1. Y=Bottom+(Top−Bottom)/(1+10^((Log IC50−X)*HillSlope)) Equation 1: […]

Molecule	IC50 (ATX 10 nM, LPC 18:1 10 μM, 37° C., 20 min pre-incubation, mean of n 2)	IC50
CN(CCC1CCN(C(=O)OCc2cc(Cl)cc(C#N)c2)CC1)C(=O)c1c[nH]nn1 [Example 36, 3-Chloro-5-cyanobenzyl 4-(2-(N-methyl-1H-1,2,3-triazole-4-carboxamido)ethyl)piperidine-1-carboxylate]	1 µM	–
(S)-3,5-Dichlorobenzyl 3-(4-(1H-1,2,3-triazol-4-yl)butanamido)pyrrolidine-1-carboxylate or (R)-3,5-Dichlorobenzyl 3-(4-(1H-1,2,3-triazol-4-yl)butanamido)pyrrolidine-1-carboxylate [Example 49a]	–	> 1 µM
(S)-3,5-Dichlorobenzyl 3-(4-(1H-1,2,3-triazol-4-yl)butanamido)pyrrolidine-1-carboxylate or (R)-3,5-Dichlorobenzyl 3-(4-(1H-1,2,3-triazol-4-yl)butanamido)pyrrolidine-1-carboxylate [Example 49b]	–	0.263 µM
